Values after ≈ are worked out from the molar mass of the structure shown. Where two headings read alike, the source gives them in different places.

The results in this text go back to patent EP0037780A1, “Alcoxy-propanol amines useful as medicines, and process for their preparation” (PIERRE FABRE S.A., priority 1980, dated 1981).

The nature of this series: Solubility. Format: physicochemical. To be noted: read-out: Solubilité. The text has this:
Chromatographie sur plaque : • - support : gel de silice 60 F 254 Merck • - solvant : chloroforme - méthanol - ammoniaque 80/18/2 • - révélation : iode • - Rf : 0,65 Solubilité : soluble à 5 % dans l'eau.
Chromatographie sur plaque : • - support : gel de silice 60 F 254 Merck • - solvant : chloroforme - méthanol - ammoniaque 80/18/2 • - révélation : iode • - Rf : 0,6 Solubilité : soluble à 1 % dans l'eau.
Chromatographie sur plaque : • - support : gel de silice 60 F 254 Merck • - solvant : chloroforme - méthanol - ammoniaque 80/18/2 • - révélation : Réactif de Dragendorf et iode • - Rf : 0,65 Solubilité : soluble à 2 % dans une solution aqueuse d'acide chlorhydrique (0,1 N) et à 1 % dans le propylène glycol.

As for `CCCCOCC(O)CNC(C)C` (stereo not shown) [Exemple 1, isopropylamino-3 butoxy-1 propanol-2], the solubility (water, dans l'eau) turned out to be 50 mg/mL (≈ 264 mM).
In the case of `CCCCOCC(O)CNC(C)(C)C` (stereo not shown) [Exemple 2, tertiobutylamino-3 butoxy-1 propanol-2], the solubility (water, dans l'eau) came out at 10 mg/mL (≈ 49.2 mM).
With `CC(C)=CCCC(C)CCOCC(O)CNC(C)C` (stereo not shown) [Exemple 3, isopropylamino-3 (diméthyl-3,7 octène-6 yloxy)-1 propanol-2], the solubility runs as follows: (0.1 n aqueous hydrochloric acid, dans une solution aqueuse d'acide chlorhydrique (0,1 N)) 20 mg/mL (≈ 73.7 mM); (propylene glycol, organic solvent or mixture, dans le propylène glycol) 10 mg/mL (≈ 36.8 mM).
